Consider one molecule from ChEMBL document CHEMBL4602687, “Dual Binding to Orthosteric and Allosteric Sites Enhances the Anticancer Activity of a TRAP1-Targeting Drug” (J Med Chem, 2020).

Assay [1] concerns the target T1, Heat shock protein 75 kDa, mitochondrial (Homo sapiens) (UniProt Q12931).
T1 sequence (whole entry): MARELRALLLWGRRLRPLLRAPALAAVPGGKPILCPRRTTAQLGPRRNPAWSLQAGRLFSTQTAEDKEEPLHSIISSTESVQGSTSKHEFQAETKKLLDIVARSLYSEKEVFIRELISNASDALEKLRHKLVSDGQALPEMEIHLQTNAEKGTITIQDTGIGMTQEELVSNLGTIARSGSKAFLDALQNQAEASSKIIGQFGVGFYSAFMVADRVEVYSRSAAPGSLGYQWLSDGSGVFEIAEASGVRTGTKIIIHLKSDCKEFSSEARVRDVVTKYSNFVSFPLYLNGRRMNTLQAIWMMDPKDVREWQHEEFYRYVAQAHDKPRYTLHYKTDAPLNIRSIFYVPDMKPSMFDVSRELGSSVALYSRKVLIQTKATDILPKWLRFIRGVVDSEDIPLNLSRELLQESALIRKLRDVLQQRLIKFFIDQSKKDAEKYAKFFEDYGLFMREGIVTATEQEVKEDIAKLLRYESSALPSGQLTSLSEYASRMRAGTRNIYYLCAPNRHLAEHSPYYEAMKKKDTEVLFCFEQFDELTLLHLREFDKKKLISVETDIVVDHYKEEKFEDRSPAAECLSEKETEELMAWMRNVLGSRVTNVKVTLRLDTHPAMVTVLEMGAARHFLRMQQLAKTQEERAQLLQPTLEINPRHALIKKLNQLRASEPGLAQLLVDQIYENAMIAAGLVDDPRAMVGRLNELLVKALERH
The experiment in a line: Allosteric modulation of recombinant wild-type human TRAP1 ATPase activity expressed in Escherichia coli BL21 (DE3) assessed as increase in substrate Km at 5 uM preincubated for 0.5 hrs followed by varying levels of ATP addition and measured after 3 hrs using PiColorLock Gold reagent by colorimetric assay-based Lineweaver-Burk plot analysis relative to control.

Assay [2] has as its target T1, Heat shock protein 75 kDa, mitochondrial (Homo sapiens). The experiment in a line: Inhibition of recombinant wild-type human TRAP1 expressed in Escherichia coli BL21 (DE3) assessed as intrinsic fluorescence quenching of tryptophan residues at 10 uM measured after 1 hr by fluorescence spectrophotometric method.
Assay [3] concerns T2, Heat shock protein 75 kDa, mitochondrial (Homo sapiens), Q12931 [R114E,E403K].
T2 sequence (whole entry): T1 sequence (whole entry) with R114E, E403K
The experiment in a line: Stimulation of recombinant […] human TRAP1 R114E/E403K mutant ATPase activity expressed in Escherichia coli BL21 (DE3) up to 20 uM preincubated for 0.5 hrs followed by ATP addition and measured after 3 hrs by PiColorLock Gold reagent based colorimetric assay.

Assay [4] concerns T3, Heat shock protein 75 kDa, mitochondrial (Homo sapiens), Q12931 [E115K,R114E,E403K].
T3 sequence (whole entry): T1 sequence (whole entry) with R114E, E115K, E403K
The experiment in a line: Stimulation of recombinant […] human TRAP1 E115K/R114E/E403K mutant ATPase activity expressed in Escherichia coli BL21 (DE3) up to 20 uM preincubated for 0.5 hrs followed by ATP addition and measured after 3 hrs by PiColorLock Gold reagent based colorimetric assay.

The target of assay [5] is T1, Heat shock protein 75 kDa, mitochondrial (Homo sapiens). The experiment in a line: Inhibition of TRAP1 in human PC3 cells assessed as loss of mitochondrial membrane potential at 10 uM measured after 2 hrs by TMRM dye based flow cytometry. The format is cell-based. Particulars: PC-3. In general terms: In flow cytometry, cells or beads pass a laser one at a time.
Assay [6] relates to NCI-H460. Description: Antitumor activity against human NCI-H460 cells xenografted in nude mouse assessed as induction of tumor cell death by measuring increase in cleaved caspase-9 expression at 5 mg/kg, ip administered daily by Western blot analysis. The format is functional, organism-based.

Numbering of substitutions follows the chain as printed. Activity calls are given as the source filed them. The rule behind the calls is not given here.

With `Nc1ncnc2c1nc(Sc1cc3c(cc1I)OCO3)n2CCCCCCCCCC[P+](c1ccccc1)(c1ccccc1)c1ccccc1`, the fold change (FC) in assay [1] is 3. Moreover, the inhibition result in assay [2] and in assay [5] was “Active” each time. Besides, the outcome in assay [3] and in assay [6] was Active. Also, in assay [4], the outcome was inactive.
